Assay results reported in patent publication US6258790A, “Antisense modulation of integrin α4 expression” (Isis Pharmaceuticals, Inc., priority 1999, dated 2001).

System: human integrin α4
Assay: Inhibition of human integrin α4 protein levels by antisense oligonucleotides (LIPOFECTIN, flow cytometry with CD49d-FITC) in A375 melanoma cells
Type: cell-based
Conditions: for inhibition (Example 11): Example 11 assay, dose not stated; for % Control (integrin α4 protein) / % Inhib (integrin α4 protein): Table 1, 200 nM oligonucleotide, 6 ug/ml LIPOFECTIN; for % CONTROL 48 hr / % INHIB 48 hr / % CONTROL 72 hr / % INHIB 72 HR: Table 2, A375
Source text: Integrin α4 protein levels can be quantitated in a variety of ways well known in the art, such as immunoprecipitation, Western blot analysis (immunoblotting), ELISA or fluorescence-activated cell sorting (FACS). Antibodies directed to integrin α4 can be identified and obtained from a variety of sources, such as the MSRS catalog of antibodies (Aerie Corporation, Birmingham, Mich.), or can be prepared via conventional antibody generation methods.
Target sites are indicated by nucleotide numbers, as given in the sequence source reference (GenBank accession no. L12002), to which the oligonucleotide binds. All compounds in Table 1 are 18 nucleotides in length, with a phosphorothioate backbone and a centered 10-base deoxynucleotide gap flanked by 2'-methoxyethoxy (2'MOE) wings. Human A375 melanoma cells (American Type Culture Collection, Manassas, Va.) were plated at 2000 cells/cm^2 two days before oligonucleotide treatment. Cells were treated with oligonucleotides at a dose of 200 nM oligonucleotide and 6 ug/ml LIPOFECTIN for four hours. Cells were incubated overnight and harvested with 2 mM EDTA in PBS. Cells were washed in 2% bovine serum albumin, 0.2% sodium azide in D-PBS at 4° C. Cells were centrifuged at 200×g, and the supernatant was decanted. […] Antibodies were incubated with the cells for 30 minutes at 4° C. in the dark, under gentle agitation. Cells were washed again as above and then resuspended in 0.3 ml of FacsFlow buffer with 0.5% formaldehyde. Cells were analyzed on Becton Dickinson FACScan. Results are expressed as percentage of control expression based on mean fluorescence intensity.
Cells were harvested with trypsin at 48 and 72 hours after oligonucleotide treatment and stained with 2 ug/ml CD49d-FITC as in the previous example.
Where backbones are mixed, linkages are shown as "s" for phosphorothioate (P=S or PS) and "o" for phosphodiester (P=O or PO). Where target region is indicated as `M62841,` oligonucleotides are targeted to the promotor region whose sequence is described in GenBank Accession No. M62841. Remaining oligonucleotides are targeted to the sequence described in Genbank Accession No. L12002 and their target sites on the L12002 sequence are indicated.
Target sites refer to nucleotide numbers on the target sequence (GenBank Accession No. L12002) to which the oligonucleotides hybridize.
Oligonucleotides were synthesized as "gapmers" consisting of a 9-nucleotide region of deoxynucleotides flanked by three 2'-O-methoxyethyl(2'-MOE) nucleotides on the 5' end and eight 2'-MOE nucleotides on the 3' end. 2'-MOE nucleotides are shown in bold in the table. Oligonucleotides were synthesized with phosphorothioate backbones throughout, and all cytosines are 5-methylcytosines.

[1] = Table 24, A375 cells, lipofectin, as Example 8

Question: With “24477 (TCCATTCTCTCAATTTGA; chemistry not given here) [compound 24477]” as the substance, how does the “inhibition (Example 11)” value read?
Answer: ≥ 40%

Question: And the “% Control (integrin α4 protein)” value (A375 cells)?
Answer: 43%

Question: And the “% CONTROL 48 hr” value (50 nM)?
Answer: 56%

Question: And the “% INHIB 48 hr” value (50 nM)?
Answer: 44%

Question: What about the “% CONTROL 72 hr” value (50 nM) of the same substance?
Answer: 72%

Question: And the “% INHIB 72 HR” value (50 nM)?
Answer: 28%

Question: What about the “% CONTROL 48 hr” value (100 nM) of the same substance?
Answer: 47%

Question: What about the “% INHIB 48 hr” value (100 nM) of the same substance?
Answer: 53%

Question: What about the “% CONTROL 72 hr” value (100 nM) of the same substance?
Answer: 67%

Question: And the “% INHIB 72 HR” value (100 nM)?
Answer: 33%

Question: And the “% CONTROL 48 hr” value (200 nM)?
Answer: 34%

Question: And the “% INHIB 48 hr” value (200 nM)?
Answer: 66%

Question: And the “% CONTROL 72 hr” value (200 nM)?
Answer: 44%

Question: What about the “% INHIB 72 HR” value (200 nM) of the same substance?
Answer: 56%

Question: And the “% CONTROL 48 hr” value (400 nM)?
Answer: 35%

Question: And the “% INHIB 48 hr” value (400 nM)?
Answer: 65%

Question: And the “% CONTROL 72 hr” value (400 nM)?
Answer: 53%

Question: What about the “% INHIB 72 HR” value (400 nM) of the same substance?
Answer: 47%

Question: What about the “% Control” value (Table 6, 10 nM) of the same substance?
Answer: 83%

Question: What about the “% Inhib.” value (Table 6, 10 nM) of the same substance?
Answer: 17%

Question: What about the “% Control” value (Table 6, 30 nM) of the same substance?
Answer: 80%

Question: And the “% Inhib.” value (Table 6, 30 nM)?
Answer: 20%

Question: And the “% Control” value (Table 6, 100 nM)?
Answer: 63%

Question: And the “% Inhib.” value (Table 6, 100 nM)?
Answer: 37%

Question: What about the “% Control” value (Table 6, 300 nM) of the same substance?
Answer: 33%

Question: What about the “% Inhib.” value (Table 6, 300 nM (highest dose)) of the same substance?
Answer: 67%

Question: For “24442 (ATGAGGCGCAGCGTGTCC; chemistry not given here) [compound 24442]”, which “% Control (integrin α4 protein)” value (A375 cells) is on record?
Answer: 82%

Question: What about the “% Inhib (integrin α4 protein)” value (A375 cells) of the same substance?
Answer: 18%

Question: Which “% Control” value (Table 4, 10 nM) does the source give for “24742 (TTTAGTGACAAAGACGTTAT; phosphorothioate, 2'-MOE, 5-methyl-C, further chemistry not given here) [compound 24742]” here?
Answer: 112%

Question: What about the “% Control” value (Table 4, 30 nM) of the same substance?
Answer: 107%

Question: What about the “% Control” value (Table 4, 100 nM) of the same substance?
Answer: 123%

Question: What about the “% Control” value (Table 4, 300 nM) of the same substance?
Answer: 128%

Question: Which “% Control” value (Table 4, 10 nM) does the source give for “24744 (AGACGTTATGGCTATTCTCT; phosphorothioate, 2'-MOE, 5-methyl-C, further chemistry not given here) [compound 24744]” here?
Answer: 121%

Question: What about the “% Control” value (Table 4, 30 nM) of the same substance?
Answer: 110%

Question: What about the “% Control” value (Table 4, 100 nM) of the same substance?
Answer: 118%

Question: What about the “% Control” value (Table 4, 300 nM) of the same substance?
Answer: 118%

Question: “24476 (CAATTTGAAAGAAGTCCT; chemistry not given here) [compound 24476]” was tested. Which “% Control (integrin α4 protein)” value (A375 cells) did it give?
Answer: 99%

Question: For “107235 (antisense TCGCTTCCCAAGCCATGCGC; chemistry not given here) [compound 107235]”, which “% Control” value [1] is on record?
Answer: 36%

Question: “107234 (antisense CTTCCCAAGCCATGCGCTCT; chemistry not given here) [compound 107234]” was tested. Which “% Control” value [1] did it give?
Answer: 47%

Question: How did the “inhibition (Example 11)” value turn out when “26641 (GAGCTTATTTTCATTCTTTA; phosphorothioate, 2'-MOE/deoxy, further chemistry not given here) [compound 26641]” was run?
Answer: ≥ 40%

Question: What about the “% Control” value (Table 6, 10 nM) of the same substance?
Answer: 88%

Question: And the “% Inhib.” value (Table 6, 10 nM)?
Answer: 12%

Question: What about the “% Control” value (Table 6, 30 nM) of the same substance?
Answer: 85%

Question: And the “% Inhib.” value (Table 6, 30 nM)?
Answer: 15%

Question: And the “% Control” value (Table 6, 100 nM)?
Answer: 67%

Question: What about the “% Inhib.” value (Table 6, 100 nM) of the same substance?
Answer: 33%

Question: What about the “% Control” value (Table 6, 300 nM) of the same substance?
Answer: 31%

Question: What about the “% Inhib.” value (Table 6, 300 nM (highest dose)) of the same substance?
Answer: 69%

Question: For “24455 (TCACATAATCTTGATAAC; chemistry not given here) [compound 24455]”, which “% Control (integrin α4 protein)” value (A375 cells) is on record?
Answer: 81%

Question: What about the “% Inhib (integrin α4 protein)” value (A375 cells) of the same substance?
Answer: 19%

Question: “24462 (TGGTGCTCTGCATGGGTG; chemistry not given here) [compound 24462]” was tested. Which “% Control (integrin α4 protein)” value (A375 cells) did it give?
Answer: 65%

Question: And the “% Inhib (integrin α4 protein)” value (A375 cells)?
Answer: 35%

Question: Which “% Control” value [1] does the source give for “107258 (antisense TTAAAGTGATAATGGTCCAC; chemistry not given here) [compound 107258]” here?
Answer: 39%

Question: Which results are given for “24469 (GTCCAAACATACTTAACG; chemistry not given here) [compound 24469]”?
Answer: % Control (integrin α4 protein) (A375 cells): 68%; % Inhib (integrin α4 protein) (A375 cells): 32%

Question: “24447 (GTGGCTGTGCAGCACGAC; chemistry not given here) [compound 24447]” was tested. Which “% Control (integrin α4 protein)” value (A375 cells) did it give?
Answer: 76%

Question: What about the “% Inhib (integrin α4 protein)” value (A375 cells) of the same substance?
Answer: 24%

Question: How did the “% Control” value [1] turn out when “107246 (antisense TAATCATCATTGCTTTTACT; chemistry not given here) [compound 107246]” was run?
Answer: 42%

Question: How did the “% Control (integrin α4 protein)” value (A375 cells) turn out when “24471 (ACCGAAAAGCACCAACTG; chemistry not given here) [compound 24471]” was run?
Answer: 80%

Question: And the “% Inhib (integrin α4 protein)” value (A375 cells)?
Answer: 20%
